# Legend:
# hTGase 2 [1] = target: T1, hTGase 2 (Homo sapiens, UniProt P21980); design: purchased Zedira T022; method as in PMID 29664627; details: fluorimetric activity assay; mean (SEM); cited from earlier work
# T1 sequence (P21980 1-687): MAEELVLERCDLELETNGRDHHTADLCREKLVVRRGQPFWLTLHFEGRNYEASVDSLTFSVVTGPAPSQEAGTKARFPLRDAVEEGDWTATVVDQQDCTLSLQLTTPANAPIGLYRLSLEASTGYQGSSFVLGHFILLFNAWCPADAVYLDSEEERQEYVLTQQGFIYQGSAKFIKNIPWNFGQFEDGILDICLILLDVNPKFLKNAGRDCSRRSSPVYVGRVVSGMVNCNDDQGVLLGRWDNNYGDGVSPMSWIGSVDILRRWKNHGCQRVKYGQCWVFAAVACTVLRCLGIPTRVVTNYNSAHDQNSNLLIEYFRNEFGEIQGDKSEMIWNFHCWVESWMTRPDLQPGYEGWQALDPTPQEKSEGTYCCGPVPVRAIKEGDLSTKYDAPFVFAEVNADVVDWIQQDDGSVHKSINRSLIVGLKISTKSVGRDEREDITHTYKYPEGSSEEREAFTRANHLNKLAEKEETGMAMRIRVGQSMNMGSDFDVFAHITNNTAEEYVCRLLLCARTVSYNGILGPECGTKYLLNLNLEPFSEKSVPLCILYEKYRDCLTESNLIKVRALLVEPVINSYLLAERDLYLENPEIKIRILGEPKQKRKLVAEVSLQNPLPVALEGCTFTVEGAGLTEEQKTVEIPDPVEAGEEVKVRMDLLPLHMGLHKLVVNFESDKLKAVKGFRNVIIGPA
# hTGase 3 = target: T2, hTGase 3 (Homo sapiens, UniProt Q08188); assay: FA-based assay, characterization of irreversible inhibitors
# T2 sequence (Q08188 2-467 limits assumed): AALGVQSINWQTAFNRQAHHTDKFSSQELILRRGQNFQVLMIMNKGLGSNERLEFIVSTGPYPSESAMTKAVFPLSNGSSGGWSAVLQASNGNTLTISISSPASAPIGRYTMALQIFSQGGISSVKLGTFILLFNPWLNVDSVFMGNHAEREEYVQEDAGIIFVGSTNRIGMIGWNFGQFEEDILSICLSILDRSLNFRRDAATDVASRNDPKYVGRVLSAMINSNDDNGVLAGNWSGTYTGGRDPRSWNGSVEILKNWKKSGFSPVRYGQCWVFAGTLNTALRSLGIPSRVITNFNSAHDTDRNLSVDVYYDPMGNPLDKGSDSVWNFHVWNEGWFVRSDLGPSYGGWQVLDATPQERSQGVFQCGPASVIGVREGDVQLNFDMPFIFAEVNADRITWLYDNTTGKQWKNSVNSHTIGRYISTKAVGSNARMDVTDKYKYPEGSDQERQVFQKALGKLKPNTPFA
# T2 sequence (Q08188 468-693 partner limits assumed): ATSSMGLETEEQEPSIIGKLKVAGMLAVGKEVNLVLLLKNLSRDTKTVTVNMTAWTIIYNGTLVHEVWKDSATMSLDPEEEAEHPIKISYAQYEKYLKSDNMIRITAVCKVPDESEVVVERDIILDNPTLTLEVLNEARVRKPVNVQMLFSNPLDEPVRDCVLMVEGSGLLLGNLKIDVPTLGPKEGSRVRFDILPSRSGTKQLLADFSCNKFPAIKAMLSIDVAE
# hTGase 1 = target: T3, hTGase 1 (Homo sapiens, UniProt P22735); assay: FA-based assay, kinetic characterization of acyl donor DMC with R-I-Cad; assay type: biochemical; design: purchased Zedira T009; details: hTGase 1 2 µg/mL, R-I-Cad 0.74 µM, pH 8.0, 30 °C, mean (SEM)
# T3 sequence (P22735 1-817): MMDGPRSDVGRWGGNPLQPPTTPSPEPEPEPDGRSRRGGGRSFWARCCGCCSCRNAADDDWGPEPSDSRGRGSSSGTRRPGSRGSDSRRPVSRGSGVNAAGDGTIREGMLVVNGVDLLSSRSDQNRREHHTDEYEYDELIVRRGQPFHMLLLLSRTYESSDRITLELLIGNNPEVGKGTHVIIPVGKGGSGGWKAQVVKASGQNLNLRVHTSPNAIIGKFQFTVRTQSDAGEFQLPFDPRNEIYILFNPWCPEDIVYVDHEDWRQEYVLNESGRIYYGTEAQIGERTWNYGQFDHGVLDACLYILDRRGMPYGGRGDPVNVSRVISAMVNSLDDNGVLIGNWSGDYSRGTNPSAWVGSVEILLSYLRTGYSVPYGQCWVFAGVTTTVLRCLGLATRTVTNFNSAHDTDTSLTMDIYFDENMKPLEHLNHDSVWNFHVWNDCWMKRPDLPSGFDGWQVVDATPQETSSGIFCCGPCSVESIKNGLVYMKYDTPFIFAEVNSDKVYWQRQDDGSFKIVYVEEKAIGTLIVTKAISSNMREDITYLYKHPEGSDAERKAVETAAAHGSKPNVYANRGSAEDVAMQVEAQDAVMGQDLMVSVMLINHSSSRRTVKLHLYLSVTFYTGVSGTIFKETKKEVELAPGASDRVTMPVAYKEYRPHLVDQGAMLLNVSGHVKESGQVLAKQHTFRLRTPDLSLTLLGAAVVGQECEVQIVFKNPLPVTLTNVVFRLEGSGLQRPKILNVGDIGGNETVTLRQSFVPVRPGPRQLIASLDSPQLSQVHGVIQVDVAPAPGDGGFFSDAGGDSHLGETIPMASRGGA
# Procedure: For the kinetic characterization of DMC (Figure 1B) in the presence of a fixed concentration of R-I-Cad (0.74 µM), eight different concentrations of DMC (0.3–300 µM) were used (2–3 separate experiments, each performed in duplicate). The corresponding stock solutions of DMC and R-I-Cad were prepared in assay buffer A and DMSO, respectively. […] Values for Km, Ki and Vmax were calculated according to the equation of substrate inhibition (Equation (2)). (2) v=Vmax∗[S]/Km+[S]∗(1+[S]/Ki)
# hTGase 2 [2] = target: T1, hTGase 2; design: purchased Zedira T022; method as in PMID 29664627; details: hTGase 2 5 µg/mL, R-I-Cad 0.74 µM, mean (SEM), cited from earlier work
# hTGase 2 [3] = target: T1, hTGase 2; assay: Fluorimetric activity assay (substrate Z-Glu(HMC)-Gly-OH); assay type: biochemical; design: purchased Zedira T022; details: mean (SEM) of 2 experiments
# Procedure: The kinetic characterization of compounds 3 and 4 by means of their kinact/KI values was performed using a fluorimetric activity assay (substrate Z-Glu(HMC)-Gly-OH) as described recently.
# [4] = read-out: Ki (substrate inhibition)
IC50 (hTGase 3) [µM],Compound,kinact/KI hTGase 2 (hTGase 2 [1]),kinact/KI (hTGase 2 [3]) [M⁻¹ s⁻¹],other results
> 30,C=CC(=O)NCCCC[C@H](NC(=O)Cc1ccccc1)C(=O)N1CCN(c2cccc(C)n2)CC1 [Compound 1],4880 (20)^c M^−1s^−1,,
,"N,N-dimethylated casein [DMC]",,,"Vmax (hTGase 1; DMC 0.3–300 µM, 5% DMSO, 500 µM DTT): 121 (13) mA mL s^−1 mg^−1; Km (hTGase 1): 8.77 µM; Ki (hTGase 1; [4]): 270 µM; Km (hTGase 2 [2]): 2.78 µM; Ki (hTGase 2 [2]; [4]): 174 µM; Vmax (hTGase 2 [2]; pH 8.0, 30 °C): 26.4 (2.8) mA mL s^−1 mg^−1"
> 100,"C#Cc1cccc(N2CCN(C(=O)[C@H](CCCCNC(=O)C=C)NC(=O)Cc3ccccc3)CC2)n1 [Compound 3, N^α-Phenylacetyl-N^ε-acryloyl-L-lysine-4-(6-ethinylpyridin-2-yl)piperazide]",,3450,
32.8,C=CC(=O)NCCCC[C@H](NC(=O)Cc1ccccc1)C(=O)N1CCN(c2ccc([N+](=O)[O-])nc2)CC1 [Compound 2],8460 (710) ^c M^−1s^−1,,

Compound,IC50 (hTGase 3) [µM],kinact/KI hTGase 2 (hTGase 2 [1]),kinact/KI (hTGase 2 [3]) [M⁻¹ s⁻¹],other results
"C=CC(=O)NCCCC[C@H](NC(=O)Cc1ccccc1)C(=O)N1CCN(c2cccc(-c3cn(CCOCCOCCOCCNC(=O)CCCC[C@@H]4SC[C@@H]5NC(=O)N[C@@H]54)nn3)n2)CC1 [Compound 4, N-(2-(2-(2-(2-(4-(6-(4-(N^6-acryloyl-N^2-(2-phenylacetyl)-L-lysyl)piperazin-1-yl)pyridin-2-yl)-1H-1,2,3-triazol-1-yl)ethoxy)ethoxy)ethoxy)ethyl)-5-((3aS,4S,6aR)-2-oxohexahydro-1H-thieno[3,4-d]imidazol-4-yl)pentanamide]",> 100,,7260,

# — publication PMC9104438, “Application of a Fluorescence Anisotropy-Based Assay to Quantify Transglutaminase 2 Activity in Cell Lysates” (International Journal of Molecular Sciences, 2022)
